Data taken from US4533747A, “Leukotriene antagonists intermediates” (SmithKline Beckman Corporation, priority 1983, dated 1985).

These compounds were tested against T1, leukotriene (LTD4) induced contraction of guinea pig tracheal tissues (Cavia porcellus, UniProt Q2NNR5) (assay: Inhibition of LTD4-induced contraction of guinea pig tracheal tissues in vitro). Details: LTD4 cumulative concentration-response; guinea pig tracheal spiral strips; 30 min pretreatment with test compound; meclofenamic acid 1 μM; EC30 relative to carbachol 10 μM; read-out: pA2 (converted).
T1 construct: Guinea pig (adult male albino Hartley strain) tracheal spiral strips; from tissue; host or cells: guinea pig (adult male albino Hartley strain) tracheal spiral strips
T1 sequence (Q2NNR5 1-340): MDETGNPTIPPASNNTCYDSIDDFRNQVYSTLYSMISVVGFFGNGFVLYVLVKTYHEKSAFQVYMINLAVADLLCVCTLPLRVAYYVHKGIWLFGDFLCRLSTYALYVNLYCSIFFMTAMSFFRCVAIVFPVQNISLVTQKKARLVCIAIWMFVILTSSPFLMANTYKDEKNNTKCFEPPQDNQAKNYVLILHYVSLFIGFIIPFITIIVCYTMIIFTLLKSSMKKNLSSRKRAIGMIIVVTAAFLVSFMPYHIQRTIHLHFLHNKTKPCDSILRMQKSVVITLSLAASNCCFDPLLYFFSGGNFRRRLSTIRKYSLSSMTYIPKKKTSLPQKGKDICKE
Type: cell-based, Guinea pig (adult male albino Hartley strain)
Procedure: The leukotriene antagonist activity of the compounds of formula (II) is measured by the ability of the compound to inhibit leukotriene induced contraction of guinea pig tracheal tissues in vitro. The following methodology was employed:
In vitro: Guinea pig (adult male albino Hartley strain) tracheal spiral strips of approximate dimensions 2 to 3 mm cross-sectional width and 3.5 cm length were bathed in modified Krebs buffer in jacketed 10 ml tissue bath and continously aerated with 95% O2 /5% CO2. The tissues were connected via silk suture to force displacement transducers for recording isometric tension. The tissues were equilibrated for 1 hr., pretreated for 15 minutes with meclofenamic acid (1 μM) to remove intrinsic prostaglandin responses, and then pretreated for an additional 30 minutes with either the test compound or vehicle control. A cumulative concentration-response curve for LTD4 on triplicate tissues was generated by successive increases in the bath concentration of the LTD4. In order to minimize intertissue variability, the contractions elicited by LTD4 were standardized as a percentage of the maximum response obtained to a reference agonist, carbachol (10 μM).
Calculations: The averages of the triplicate LTD4 concentration-response curves both in the presence and absence of the test compound were plotted on log graph paper. The concentration of LTD4 needed to elicit 30% of the contraction elicited by carbachol was measured and defined as the EC30. The pA2 value for the test compound as determined by the following equations: [formula]

Kb [nM]	SMILES
794	CCCCCCCCCCCC/C=C\C(SCCC(=O)O)C(O)CC(=O)O (stereo not drawn) [3-Hydroxy-4-[(2-carboxyethyl)thio]-5(Z)-octadecenoic acid]
1000	CCCCCCCCCCCC/C=C\C(SCCC(=O)O)C(=O)O (stereo not drawn) [2-[(2-Carboxyethyl)thio]-3(Z)-hexadecenoic acid]
5010	CCCCCCCCCCCC/C=C\C(CO)SCCC(=O)O (stereo not drawn) [2-[(2-Carboxyethyl)thio]-3(Z)-hexadecen-1-ol]
